Measurements taken from US8426447B2, “Spiro-tricyclic ring compounds as beta-secretase modulators and methods of use” (Amgen Inc., priority 2008, dated 2013).

Columns and labels:
BACE1 [1] = target: T1, BACE1 (Homo sapiens, UniProt P56817); assay: In Vitro Enzymatic BACE FRET (Fluorescence Resonance Energy Transfer) Assay; type: biochemical
Method in brief: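 Buffer: 0.05 M acetate, pH 4.2, 10% DMSO final, 100 uM genapol. Start: FRET substrate 50 nM. Incubation 1 h. Stop: Tris to neutral pH. Read: fluorescence.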

BACE1 [2] = target: T1, BACE1; assay: In Vitro BACE Cell-based Assay (HEK cell assay): Aβ40 in conditioned medium of cells stably expressing Amyloid Precursor Protein, sandwich ELISA
Method in brief: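 Read-out is time-resolved fluorescence of Aβ40 in supernatant, captured by pAb40 and detected with biotinylated 6E10 plus Streptavidin-Europium. Cells stably expressing APP received compounds for 24 h over 10 concentrations starting at 100 μM or 10 μM, final DMSO 0.1%.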

[3] = Table IV, class symbols, read-out: BACE1 FRET assay
[4] = Table IV, class symbols, read-out: HEK cell assay
[5] = HEK cells, read-out: HEK cell assay
[6] = Table III, IC50's in uM ranges, read-out: BACE1 FRET assay
[7] = Table III, IC50's in uM ranges, read-out: HEK cell assay
[8] = in vitro BACE FRET enzyme assay, IC50 class symbols, read-out: BACE1 FRET assay
[9] = HEK cell-based assay, Aβ40 in conditioned medium, IC50 class symbols, read-out: HEK cell assay

T1 sequence (P56817 46-501, species assumed): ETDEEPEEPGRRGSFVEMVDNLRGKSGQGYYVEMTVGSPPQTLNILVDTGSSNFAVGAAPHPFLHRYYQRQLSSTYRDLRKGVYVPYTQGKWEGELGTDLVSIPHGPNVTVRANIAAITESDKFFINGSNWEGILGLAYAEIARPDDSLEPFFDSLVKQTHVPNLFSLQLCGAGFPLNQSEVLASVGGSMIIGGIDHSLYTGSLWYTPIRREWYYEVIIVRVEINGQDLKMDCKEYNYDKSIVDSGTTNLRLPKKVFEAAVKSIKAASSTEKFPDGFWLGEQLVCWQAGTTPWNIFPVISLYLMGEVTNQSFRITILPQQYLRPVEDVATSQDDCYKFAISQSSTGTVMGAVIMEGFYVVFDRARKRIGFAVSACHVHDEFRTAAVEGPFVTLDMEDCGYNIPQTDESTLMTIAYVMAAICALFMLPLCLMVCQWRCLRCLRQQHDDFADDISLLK

IC50 (BACE1 [1]; [3]) | IC50 (BACE1 [2]; [4]) | IC50 (BACE1 [1]; read-out: BACE1 FRET assay) | IC50 (BACE1 [2]; read-out: HEK cell assay) | SMILES | further results
< 0.1 µM | < 0.1 µM | – | – | CC1(COc2ccc3c(c2)[C@@]2(COC(N)=N2)c2cc(-c4cncnc4)cc(F)c2O3)COC1 [compound 795] | –
– | – | 0.1 to 1 µM | > 5 µM | CC(C)(C)COc1ccc2c(c1)[C@]1(COC(N)=N1)c1cc(-c3ccc(Br)nn3)ccc1O2 [compound 970] | –
– | – | < 0.1 µM | 0.1 to 1 µM | CC(C)(C)COc1ccc2c(c1)[C@]1(COC(N)=N1)c1cc(-c3csc(C(F)F)c3)ccc1O2 [compound 737] | –
– | – | 1 to 5 µM | – | NC1=N[C@]2(CO1)c1cc(C3=CCOCC3)ccc1Oc1cnc(Cl)cc12 [compound 499] | IC50 (BACE1 [2]; [5]): > 5 µM
1 to 5 µM | > 5 µM | – | – | CC(C)(C)COc1ccc2c(c1)[C@]1(COC(N)=N1)c1cc(-c3ccc(N4CCOCC4)nc3)ccc1O2 [compound 912] | –
– | – | 0.1 to 1 µM | 1 to 5 µM | CC(C)(C)C#Cc1ccc2c(c1)[C@]1(COC(N)=N1)c1nc(-c3cccnc3)ccc1O2 [compound 697] | –
1 to 5 µM | > 5 µM | – | – | CC(C)(C)COc1ccc2c(c1)[C@]1(COC(N)=N1)c1cc(C(=O)O)ccc1O2 [compound 861] | –
< 0.1 µM | 0.1 to 1 µM | – | – | NC1=N[C@@]2(CO1)c1cc(-c3cccnc3F)ccc1Oc1cnc(-c3cccnc3F)cc12 [compound 550] | –
1 to 5 µM | 1 to 5 µM | – | – | COc1ccc2c(c1)[C@]1(COC(N)=N1)c1cc(-c3cnc4ccccc4c3)ccc1O2 [compound 633] | –
0.1 to 1 µM | 0.1 to 1 µM | – | – | NC1=N[C@@]2(CO1)c1cc(C(=O)N3CCCC3)ccc1Oc1ccc(-c3cccnc3)cc12 [compound 872] | –
– | – | < 0.1 µM | < 0.1 µM | NC1=N[C@@]2(CO1)c1cc(-c3cccnc3)ccc1Oc1ccc(N3CCOCC3)cc12 [compound 764] | –
1 to 5 µM | > 5 µM | – | – | CC(C)(C)C#Cc1ccc2c(c1)[C@]1(COC(N)=N1)c1cc(Cl)ncc1O2 [compound 846] | –
– | – | < 0.1 µM | – | Cn1cc(-c2cc(F)c3c(c2)[C@]2(COC(N)=N2)c2cc(-c4cccnc4)ccc2O3)cn1 [compound 509, (4S)-4′-fluoro-2′-(1-methyl-1H-pyrazol-4-yl)-7′-(3-pyridinyl)spiro[1,3-oxazole-4,9′-xanthen]-2-amine] | IC50 (BACE1 [2]; [5]): < 0.1 µM
> 5 µM | > 5 µM | – | – | NC1=N[C@@]2(CO1)c1cc(Br)ccc1Oc1ncccc12 [compound 601] | –
– | – | < 0.1 µM | – | CCC1(CC)CN(c2ccc3c(c2)[C@]2(COC(N)=N2)c2cc(-c4cncnc4)ccc2O3)CCO1 [compound 467] | IC50 (BACE1 [2]; [5]): 0.1 to 1 µM
< 0.1 µM | < 0.1 µM | – | – | NC1=N[C@]2(CO1)c1cc(CCC3(O)CCC3)ccc1Oc1ccc(-c3cccnc3)cc12 [compound 859] | –

The next lines start with the compound.

SMILES | IC50 (BACE1 [1]; [3]) | IC50 (BACE1 [2]; [4]) | IC50 (BACE1 [1]; read-out: BACE1 FRET assay) | IC50 (BACE1 [2]; read-out: HEK cell assay) | further results
CC(C)(C)COc1ccc2c(c1)[C@]1(COC(N)=N1)c1cc(-c3cccnn3)ccc1O2 [compound 649] | < 0.1 µM | 0.1 to 1 µM | – | – | –
NC1=N[C@@]2(CO1)c1cc(-c3cccnc3)ccc1Oc1ccc(-c3csc(N4CCCC4)n3)cc12 [compound 624] | 0.1 to 1 µM | 1 to 5 µM | – | – | –
COc1ccc2c(c1)[C@@]1(COC(N)=N1)c1cc(-c3ccc(OCC4CC4)nc3)cnc1O2 [compound 668] | – | – | 0.1 to 1 µM | 0.1 to 1 µM | –
CC(C)(C)COc1ccc2c(c1)[C@]1(COC(N)=N1)c1cc(-c3ccnnc3)ccc1O2 [compound 145] | – | – | – | – | IC50 (BACE1 [1]; [6]): < 0.1 µM; IC50 (BACE1 [2]; [7]): 0.1 to 1 µM
NC1=N[C@@]2(CO1)c1cc(C(=O)NC3CC3)ccc1Oc1ccc(-c3ccccc3)cc12 [compound 518] | – | – | < 0.1 µM | – | IC50 (BACE1 [2]; [5]): < 0.1 µM
CCOC(C)(C)COc1ccc2c(c1)[C@]1(COC(N)=N1)c1cc(-c3cncnc3)ccc1O2 [compound 170] | – | – | – | – | IC50 (BACE1 [1]; [6]): < 0.1 µM; IC50 (BACE1 [2]; [7]): < 0.1 µM
NC1=N[C@@]2(CO1)c1cc(-c3ccccc3F)ccc1Oc1cnc(C3=CCOCC3)cc12 [compound 426] | – | – | < 0.1 µM | – | IC50 (BACE1 [2]; [5]): 0.1 to 1 µM
CC(C)CCCOc1nccc2c1[C@]1(COC(N)=N1)c1cc(-c3cccnc3)ccc1O2 [compound 842] | 0.1 to 1 µM | 0.1 to 1 µM | – | – | –
CC(C)(C)C#Cc1ccc2c(c1)[C@]1(COC(N)=N1)c1cc(C#CC(C)(C)C)cnc1O2 [compound 898] | 0.1 to 1 µM | > 5 µM | – | – | –
CC(C)(C)COc1cnc2c(c1)[C@]1(COC(N)=N1)c1cc(Br)ccc1O2 [compound 388] | – | – | – | – | IC50 (BACE1 [1]; [8]): 0.1 to 1 µM; IC50 (BACE1 [2]; [9]): 1 to 5 µM
CC1(C)CC(c2cc3c(cn2)Oc2ccc(-c4cccnc4F)cc2[C@@]32COC(N)=N2)=CCO1 [compound 434] | – | – | – | – | IC50 (BACE1 [1]; BACE1 FRET assay (uM)): < 0.1 µM; IC50 (BACE1 [2]; HEK cell assay (uM), HEK cells): < 0.1 µM
NC1=N[C@@]2(CO1)c1cc(-c3cc(F)ccc3F)ccc1Oc1ncc(N3CCOCC3)cc12 [compound 461] | – | – | < 0.1 µM | – | IC50 (BACE1 [2]; [5]): < 0.1 µM
CC(C)(C)COc1ccc2c(c1)[C@@]1(COC(N)=N1)c1cc(-c3ccc(C#N)nc3)ccc1O2 [compound 782] | – | – | < 0.1 µM | 0.1 to 1 µM | –
CC(C)(C)COc1ccc2c(c1)[C@]1(COC(N)=N1)c1cc(C3=CCOCC3)ccc1O2 [compound 755] | – | – | 0.1 to 1 µM | 1 to 5 µM | –
NC1=N[C@]2(CO1)c1cc(/C=C/C(=O)O)ccc1Oc1ccc(-c3cccnc3)cc12 [compound 949] | – | – | < 0.1 µM | > 5 µM | –
CCc1cc2c3c(ccc2o1)Oc1ncc(-c2cncnc2)cc1[C@]31COC(N)=N1 [compound 769] | – | – | 0.1 to 1 µM | 1 to 5 µM | –
CC(C)(C)COc1ccc2c(n1)[C@@]1(COC(N)=N1)c1cc(Br)ccc1O2 [compound 736] | – | – | 1 to 5 µM | > 5 µM | –
Cc1ccc(-c2ccc3c(c2)[C@]2(COC(N)=N2)c2cc(-c4cncnc4)ccc2O3)o1 [compound 880] | < 0.1 µM | < 0.1 µM | – | – | –
NC1=N[C@@]2(CO1)c1cc(-c3cncnc3)ccc1Oc1cnc(-c3ccccc3)cc12 [compound 546] | < 0.1 µM | < 0.1 µM | – | – | –
NC1=N[C@]2(CO1)c1ccccc1Oc1ccc(-c3cccc4cccnc34)cc12 [compound 630] | 1 to 5 µM | > 5 µM | – | – | –

SMILES | IC50 (BACE1 [1]; [3]) | IC50 (BACE1 [2]; [4]) | IC50 (BACE1 [1]; read-out: BACE1 FRET assay) | IC50 (BACE1 [2]; read-out: HEK cell assay) | further results
CC(C)(C)C#Cc1ccc2c(n1)[C@@]1(COC(N)=N1)c1cc(-c3cncnc3)ccc1O2 [compound 528] | – | – | < 0.1 µM | – | IC50 (BACE1 [2]; [5]): < 0.1 µM
N#Cc1cccc(-c2ccc3c(c2)[C@]2(COC(N)=N2)c2cc(-c4cccnc4)ccc2O3)c1 [compound 961] | – | – | < 0.1 µM | < 0.1 µM | –
CC(C)(C#N)COc1cnc2c(c1)[C@]1(COC(N)=N1)c1cc(-c3ccccc3)ccc1O2 [compound 409] | – | – | – | – | IC50 (BACE1 [1]; [8]): < 0.1 µM; IC50 (BACE1 [2]; [9]): 0.1 to 1 µM
CCCOc1cc2c(cc1F)Oc1ccc(-c3ccc(F)nc3)cc1[C@]21COC(N)=N1 [compound 921] | 0.1 to 1 µM | 1 to 5 µM | – | – | –
COc1cc(F)c2c(c1)[C@@]1(COC(N)=N1)c1cc(-c3cncnc3)ccc1O2 [compound 582] | 1 to 5 µM | > 5 µM | – | – | –
CC(C)(C)COc1ccc2c(c1)[C@@]1(COC(N)=N1)c1cc(-c3cccnc3F)cnc1O2 [compound 952] | – | – | < 0.1 µM | < 0.1 µM | –
NC1=N[C@]2(CO1)c1cc(C(=O)CC3CCCCC3)ccc1Oc1ccc(-c3cncnc3)cc12 [compound 141] | – | – | – | – | IC50 (BACE1 [1]; [6]): < 0.1 µM; IC50 (BACE1 [2]; [7]): 0.1 to 1 µM
COC(C)(C)C#Cc1cnc2c(c1)[C@@]1(COC(N)=N1)c1cc(-c3ccc(F)nc3)ccc1O2 [compound 723] | – | – | 0.1 to 1 µM | 1 to 5 µM | –
CC(=O)c1cccc(-c2ccc3c(c2)[C@@]2(COC(N)=N2)c2cc(OCC(C)(C)C)ccc2O3)c1 [compound 973] | – | – | 0.1 to 1 µM | 1 to 5 µM | –
CC(C)(C)OC(=O)N1CC=C(c2ccc3c(c2)[C@]2(COC(N)=N2)c2cc(-c4cccnc4)ccc2O3)CC1 [compound 819] | < 0.1 µM | 0.1 to 1 µM | – | – | –
CC1(C)CC1c1cc2c(cn1)Oc1ccc(-c3cccnc3)cc1[C@]21COC(N)=N1 (stereo partly shown) [compound 677] | – | – | < 0.1 µM | 0.1 to 1 µM | –
CC(C)(C)COc1ccc2c(c1)[C@@]1(COC(N)=N1)c1cc(-c3csc(C(F)F)c3)ccc1O2 [compound 783] | – | – | < 0.1 µM | 1 to 5 µM | –
NC1=N[C@]2(CO1)c1cc(-c3cccc(F)c3)ccc1Oc1ncc(C3=CCOCC3)cc12 [compound 690] | – | – | 1 to 5 µM | > 5 µM | –
NC1=N[C@@]2(CO1)c1cc(-c3cccnc3F)ccc1Oc1ccc(C3CCOCC3)nc12 [compound 338] | – | – | – | – | IC50 (BACE1 [1]; [8]): < 0.1 µM; IC50 (BACE1 [2]; [9]): < 0.1 µM
CC(C)(C)COc1ccc2c(c1)[C@@]1(CSC(N)=N1)c1cc(-c3cncnc3)ccc1O2 [compound 721] | – | – | < 0.1 µM | 1 to 5 µM | –
COc1cc(F)c2c(c1)[C@]1(COC(N)=N1)c1cc(-c3cncnc3)ccc1O2 [compound 581] | < 0.1 µM | < 0.1 µM | – | – | –
NC1=N[C@]2(CO1)c1cc(/C=C/C(=O)O)ccc1Oc1ccc(-c3cncnc3)cc12 [compound 948] | – | – | 0.1 to 1 µM | > 5 µM | –
CC(C)(C)COc1ccc2c(c1)[C@]1(COC(N)=N1)c1cc(C3=CC4CCC3C4)ccc1O2 (stereo partly shown) [compound 730] | – | – | < 0.1 µM | 1 to 5 µM | –
CC1(COc2ccc3c(c2)[C@@]2(COC(N)=N2)c2cc(-c4ccccc4)cnc2O3)COC1 [compound 966, (5S)-7-((3-methyl-3-oxetanyl)methoxy)-3-phenylspiro[chromeno[2,3-b]pyridine-5,4′-[1,3]oxazol]-2′-amine] | – | – | < 0.1 µM | < 0.1 µM | –
NC1=N[C@@]2(CO1)c1cc(-c3cccnc3N3CCOCC3)ccc1Oc1cnc(Cl)cc12 [compound 337] | – | – | – | – | IC50 (BACE1 [1]; [8]): 1 to 5 µM; IC50 (BACE1 [2]; [9]): > 5 µM
